{"source": "ChEMBL document CHEMBL1817560", "about": "“Selectivity of kinase inhibitor fragments” (J Med Chem, 2011)", "key": {"[1]": {"target": "T1, Mitogen-activated protein kinase kinase kinase 5 (Homo sapiens) (UniProt Q99683)", "T1 sequence (whole entry)": "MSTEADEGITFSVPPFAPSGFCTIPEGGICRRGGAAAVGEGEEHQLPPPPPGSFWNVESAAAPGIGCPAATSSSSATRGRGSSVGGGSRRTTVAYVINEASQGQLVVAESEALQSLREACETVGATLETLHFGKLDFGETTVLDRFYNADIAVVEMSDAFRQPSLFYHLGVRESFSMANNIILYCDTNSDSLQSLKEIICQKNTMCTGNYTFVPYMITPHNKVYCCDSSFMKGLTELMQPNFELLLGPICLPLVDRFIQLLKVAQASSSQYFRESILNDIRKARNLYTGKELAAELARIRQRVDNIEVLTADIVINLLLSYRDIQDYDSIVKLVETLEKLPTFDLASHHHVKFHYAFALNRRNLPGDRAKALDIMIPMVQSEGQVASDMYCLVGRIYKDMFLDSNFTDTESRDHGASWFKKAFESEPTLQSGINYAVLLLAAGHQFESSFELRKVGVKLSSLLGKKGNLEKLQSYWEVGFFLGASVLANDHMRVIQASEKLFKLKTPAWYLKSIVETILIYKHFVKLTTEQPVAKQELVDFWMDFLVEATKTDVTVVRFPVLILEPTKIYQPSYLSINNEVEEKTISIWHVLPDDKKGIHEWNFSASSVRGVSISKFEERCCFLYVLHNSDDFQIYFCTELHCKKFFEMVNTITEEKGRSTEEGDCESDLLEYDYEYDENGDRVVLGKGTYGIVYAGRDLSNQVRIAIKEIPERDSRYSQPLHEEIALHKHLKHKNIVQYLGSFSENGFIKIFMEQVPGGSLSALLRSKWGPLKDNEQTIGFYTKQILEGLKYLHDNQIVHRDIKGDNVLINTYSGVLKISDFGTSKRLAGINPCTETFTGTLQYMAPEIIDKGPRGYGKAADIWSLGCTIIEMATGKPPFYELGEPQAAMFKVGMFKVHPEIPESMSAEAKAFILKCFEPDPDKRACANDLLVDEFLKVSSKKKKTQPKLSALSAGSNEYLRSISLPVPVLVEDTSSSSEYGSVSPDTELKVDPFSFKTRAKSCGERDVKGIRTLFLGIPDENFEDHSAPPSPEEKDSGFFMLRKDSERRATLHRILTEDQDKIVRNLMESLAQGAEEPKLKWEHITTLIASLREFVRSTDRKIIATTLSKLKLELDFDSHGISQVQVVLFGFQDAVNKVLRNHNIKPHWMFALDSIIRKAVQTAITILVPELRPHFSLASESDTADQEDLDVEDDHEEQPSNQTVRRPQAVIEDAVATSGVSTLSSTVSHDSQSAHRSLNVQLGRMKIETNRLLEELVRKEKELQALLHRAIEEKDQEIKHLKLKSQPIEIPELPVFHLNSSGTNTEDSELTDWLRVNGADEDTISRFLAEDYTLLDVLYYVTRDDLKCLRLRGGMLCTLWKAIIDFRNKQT", "experiment": "Inhibition of ASK1 expressed in Escherichia coli or baculovirus-infected insect cells at 667 uM by IMAP assay"}, "[2]": {"target": "Receptor tyrosine-protein kinase erbB-4 (Homo sapiens) (UniProt Q15303)", "sequence (Q15303 whole entry)": "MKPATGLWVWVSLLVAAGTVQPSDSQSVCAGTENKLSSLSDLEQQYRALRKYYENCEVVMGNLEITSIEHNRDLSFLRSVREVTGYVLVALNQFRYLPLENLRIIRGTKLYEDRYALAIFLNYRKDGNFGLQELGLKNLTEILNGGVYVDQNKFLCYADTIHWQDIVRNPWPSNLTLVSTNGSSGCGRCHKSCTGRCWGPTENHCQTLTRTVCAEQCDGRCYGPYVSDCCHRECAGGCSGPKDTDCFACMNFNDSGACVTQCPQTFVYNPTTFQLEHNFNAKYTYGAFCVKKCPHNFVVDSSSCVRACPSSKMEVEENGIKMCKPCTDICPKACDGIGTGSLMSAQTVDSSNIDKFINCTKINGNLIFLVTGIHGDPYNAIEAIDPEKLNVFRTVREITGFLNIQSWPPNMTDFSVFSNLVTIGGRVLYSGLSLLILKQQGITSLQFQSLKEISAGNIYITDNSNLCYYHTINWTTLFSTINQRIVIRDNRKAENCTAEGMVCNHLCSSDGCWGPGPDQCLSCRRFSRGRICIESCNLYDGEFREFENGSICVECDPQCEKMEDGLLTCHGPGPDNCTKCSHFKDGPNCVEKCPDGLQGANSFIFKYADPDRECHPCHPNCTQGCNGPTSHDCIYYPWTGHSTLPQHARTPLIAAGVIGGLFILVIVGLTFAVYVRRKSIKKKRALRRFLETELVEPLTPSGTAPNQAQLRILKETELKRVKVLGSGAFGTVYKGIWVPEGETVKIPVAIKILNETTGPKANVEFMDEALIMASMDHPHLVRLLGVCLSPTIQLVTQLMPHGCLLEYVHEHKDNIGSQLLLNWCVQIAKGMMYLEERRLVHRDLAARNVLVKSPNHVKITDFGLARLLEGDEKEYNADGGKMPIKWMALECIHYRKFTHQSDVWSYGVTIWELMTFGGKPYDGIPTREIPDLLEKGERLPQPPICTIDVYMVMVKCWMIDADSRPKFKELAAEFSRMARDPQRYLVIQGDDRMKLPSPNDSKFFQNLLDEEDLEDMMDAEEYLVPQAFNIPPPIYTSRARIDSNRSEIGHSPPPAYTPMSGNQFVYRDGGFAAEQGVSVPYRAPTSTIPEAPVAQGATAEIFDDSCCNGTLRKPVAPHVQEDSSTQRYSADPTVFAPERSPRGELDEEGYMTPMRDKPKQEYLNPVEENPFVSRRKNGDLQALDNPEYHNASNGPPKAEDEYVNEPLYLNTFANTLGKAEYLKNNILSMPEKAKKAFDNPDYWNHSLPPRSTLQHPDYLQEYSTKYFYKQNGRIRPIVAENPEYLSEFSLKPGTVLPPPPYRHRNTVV", "experiment": "Inhibition of ErbB4 expressed in Escherichia coli or baculovirus-infected insect cells at 400 to 667 uM by TR-FRET assay"}, "[3]": {"target": "Glycogen synthase kinase-3 beta (Homo sapiens) (UniProt P49841)", "sequence (P49841 whole entry, looked up)": "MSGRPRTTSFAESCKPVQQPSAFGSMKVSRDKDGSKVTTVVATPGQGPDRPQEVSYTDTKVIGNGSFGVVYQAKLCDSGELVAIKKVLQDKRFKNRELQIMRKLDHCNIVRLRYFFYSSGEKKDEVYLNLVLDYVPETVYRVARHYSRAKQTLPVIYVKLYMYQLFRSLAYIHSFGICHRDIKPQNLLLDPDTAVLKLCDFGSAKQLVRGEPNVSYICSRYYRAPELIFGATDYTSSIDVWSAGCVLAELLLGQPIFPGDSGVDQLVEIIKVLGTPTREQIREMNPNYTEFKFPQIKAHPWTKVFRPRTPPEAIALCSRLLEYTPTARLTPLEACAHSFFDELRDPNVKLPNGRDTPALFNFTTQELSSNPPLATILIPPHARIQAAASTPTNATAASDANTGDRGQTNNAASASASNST", "experiment": "Inhibition of GSK3-beta expressed in Escherichia coli or baculovirus-infected insect cells using ATP as substrate at 667 uM by fluorescence polarization assay"}, "[4]": {"target": "T2, Tyrosine-protein kinase ITK/TSK (Homo sapiens) (UniProt Q08881)", "T2 sequence (whole entry)": "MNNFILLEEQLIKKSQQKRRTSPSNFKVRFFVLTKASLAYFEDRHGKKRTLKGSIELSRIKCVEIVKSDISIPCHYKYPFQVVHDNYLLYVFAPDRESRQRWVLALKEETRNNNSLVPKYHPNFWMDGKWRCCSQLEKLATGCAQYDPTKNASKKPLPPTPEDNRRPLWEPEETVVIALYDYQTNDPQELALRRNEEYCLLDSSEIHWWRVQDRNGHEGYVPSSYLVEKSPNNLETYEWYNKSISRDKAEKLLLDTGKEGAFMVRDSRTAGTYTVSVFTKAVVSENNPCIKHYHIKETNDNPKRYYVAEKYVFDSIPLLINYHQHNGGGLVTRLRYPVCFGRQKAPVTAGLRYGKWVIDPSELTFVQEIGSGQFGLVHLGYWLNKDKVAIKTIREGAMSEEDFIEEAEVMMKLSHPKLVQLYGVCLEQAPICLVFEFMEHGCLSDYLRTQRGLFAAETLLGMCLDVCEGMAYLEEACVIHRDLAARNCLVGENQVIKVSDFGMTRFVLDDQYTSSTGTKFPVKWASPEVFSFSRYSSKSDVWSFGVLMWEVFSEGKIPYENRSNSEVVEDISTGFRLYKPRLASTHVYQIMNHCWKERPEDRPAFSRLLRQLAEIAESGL", "experiment": "Inhibition of ITK expressed in Escherichia coli or baculovirus-infected insect cells at 667 uM by TR-FRET assay"}, "[5]": {"target": "Serine/threonine-protein kinase B-raf (Homo sapiens) (UniProt P15056)", "sequence (P15056 whole entry)": "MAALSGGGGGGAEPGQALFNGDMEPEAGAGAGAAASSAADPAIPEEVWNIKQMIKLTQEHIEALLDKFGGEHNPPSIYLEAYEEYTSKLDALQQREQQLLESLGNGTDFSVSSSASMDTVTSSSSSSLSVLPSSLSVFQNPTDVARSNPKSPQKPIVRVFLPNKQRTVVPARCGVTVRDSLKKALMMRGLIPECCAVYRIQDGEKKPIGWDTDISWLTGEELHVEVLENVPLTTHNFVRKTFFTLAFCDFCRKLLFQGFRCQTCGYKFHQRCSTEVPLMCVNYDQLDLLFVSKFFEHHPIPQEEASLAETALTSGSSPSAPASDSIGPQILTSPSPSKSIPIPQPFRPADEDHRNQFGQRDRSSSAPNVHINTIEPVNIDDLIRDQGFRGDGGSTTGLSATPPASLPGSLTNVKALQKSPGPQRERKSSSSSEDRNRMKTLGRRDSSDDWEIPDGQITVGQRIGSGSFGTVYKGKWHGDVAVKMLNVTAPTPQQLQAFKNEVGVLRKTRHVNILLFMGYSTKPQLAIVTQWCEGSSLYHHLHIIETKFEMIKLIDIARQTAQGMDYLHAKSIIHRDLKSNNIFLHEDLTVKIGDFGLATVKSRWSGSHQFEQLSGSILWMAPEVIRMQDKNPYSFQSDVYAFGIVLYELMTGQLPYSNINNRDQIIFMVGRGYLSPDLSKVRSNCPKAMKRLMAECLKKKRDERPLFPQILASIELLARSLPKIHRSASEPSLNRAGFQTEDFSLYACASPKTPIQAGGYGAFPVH", "experiment": "Inhibition of B-Raf expressed in Escherichia coli or baculovirus-infected insect cells using ATP as substrate at 400 uM by fluorescence polarization assay"}, "[6]": {"target": "Serine/threonine-protein kinase PAK 1 (Homo sapiens) (UniProt Q13153)", "sequence (Q13153 whole entry)": "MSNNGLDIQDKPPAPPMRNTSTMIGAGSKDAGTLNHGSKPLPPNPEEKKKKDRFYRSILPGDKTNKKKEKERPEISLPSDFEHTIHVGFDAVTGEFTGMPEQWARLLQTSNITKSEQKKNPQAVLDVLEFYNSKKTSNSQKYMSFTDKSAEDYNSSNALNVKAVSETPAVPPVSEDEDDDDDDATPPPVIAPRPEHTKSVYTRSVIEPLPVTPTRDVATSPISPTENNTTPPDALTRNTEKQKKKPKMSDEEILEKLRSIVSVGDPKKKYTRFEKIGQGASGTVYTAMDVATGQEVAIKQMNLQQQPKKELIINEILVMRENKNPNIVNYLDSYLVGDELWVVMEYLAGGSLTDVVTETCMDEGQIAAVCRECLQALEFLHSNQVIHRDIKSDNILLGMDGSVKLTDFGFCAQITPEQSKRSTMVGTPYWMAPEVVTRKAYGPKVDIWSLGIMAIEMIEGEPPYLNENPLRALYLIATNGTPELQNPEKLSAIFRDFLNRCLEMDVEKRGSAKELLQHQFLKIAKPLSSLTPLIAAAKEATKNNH", "experiment": "Inhibition of PAK1 expressed in Escherichia coli or baculovirus-infected insect cells at 400 uM by IMAP assay"}}, "data": [{"smiles": "Cc1ccc(NC(=O)Nc2cc(C(C)(C)C)nn2-c2ccccc2)cc1", "values": [{"measurement": "inhibition", "setting": "[1]", "result": 13, "unit": "%"}, {"measurement": "inhibition", "setting": "[2]", "result": 0, "unit": "%"}, {"measurement": "inhibition", "setting": "[3]", "result": 34, "unit": "%"}, {"measurement": "inhibition", "setting": "[4]", "result": 30, "unit": "%"}]}, {"smiles": "c1ccc2[nH]ncc2c1", "note": "[INDAZOLE]", "values": [{"measurement": "inhibition", "setting": "[1]", "result": 31, "unit": "%"}, {"measurement": "inhibition", "setting": "[5]", "result": 0, "unit": "%"}, {"measurement": "inhibition", "setting": "[2]", "result": 5, "unit": "%"}, {"measurement": "inhibition", "setting": "[3]", "result": 35, "unit": "%"}, {"measurement": "inhibition", "setting": "[4]", "result": 26, "unit": "%"}, {"measurement": "inhibition", "setting": "[6]", "result": 12, "unit": "%"}]}, {"smiles": "Cc1ccc(C(=O)NC2CC2)cc1F", "values": [{"measurement": "inhibition", "setting": "[1]", "result": 9, "unit": "%"}, {"measurement": "inhibition", "setting": "[2]", "result": 0, "unit": "%"}, {"measurement": "inhibition", "setting": "[3]", "result": 23, "unit": "%"}, {"measurement": "inhibition", "setting": "[4]", "result": 14, "unit": "%"}]}, {"smiles": "Nc1ccc2ncc(-c3ccccc3)n2n1", "values": [{"measurement": "inhibition", "setting": "[1]", "result": 77, "unit": "%"}, {"measurement": "inhibition", "setting": "[2]", "result": 47, "unit": "%"}, {"measurement": "inhibition", "setting": "[3]", "result": 66, "unit": "%"}, {"measurement": "inhibition", "setting": "[4]", "result": 94, "unit": "%"}, {"measurement": "inhibition", "setting": "[6]", "result": 38, "unit": "%"}]}, {"smiles": "c1ccc(-c2cnc3nccnn23)cc1", "values": [{"measurement": "inhibition", "setting": "[1]", "result": 1, "unit": "%"}, {"measurement": "inhibition", "setting": "[2]", "result": 0, "unit": "%"}, {"measurement": "inhibition", "setting": "[3]", "result": 19, "unit": "%"}, {"measurement": "inhibition", "setting": "[4]", "result": 6, "unit": "%"}, {"measurement": "inhibition", "setting": "[6]", "result": 0, "unit": "%"}]}, {"smiles": "Nc1[nH]cnc2ncnc1-2", "values": [{"measurement": "inhibition", "setting": "[1]", "result": 88, "unit": "%"}, {"measurement": "inhibition", "setting": "[2]", "result": 9, "unit": "%"}, {"measurement": "inhibition", "setting": "[3]", "result": 57, "unit": "%"}, {"measurement": "inhibition", "setting": "[4]", "result": 87, "unit": "%"}]}, {"smiles": "c1n[nH]c2c1CCCC2", "values": [{"measurement": "inhibition", "setting": "[2]", "result": 0, "unit": "%"}, {"measurement": "inhibition", "setting": "[3]", "result": 41, "unit": "%"}, {"measurement": "inhibition", "setting": "[4]", "result": 24, "unit": "%"}, {"measurement": "inhibition", "setting": "[6]", "result": 0, "unit": "%"}]}, {"smiles": "Nc1[nH]nc2ccccc12", "values": [{"measurement": "inhibition", "setting": "[1]", "result": 80, "unit": "%"}, {"measurement": "inhibition", "setting": "[2]", "result": 0, "unit": "%"}, {"measurement": "inhibition", "setting": "[3]", "result": 34, "unit": "%"}, {"measurement": "inhibition", "setting": "[4]", "result": 41, "unit": "%"}, {"measurement": "inhibition", "setting": "[6]", "result": 17, "unit": "%"}]}, {"smiles": "c1ccc(Nc2ccccc2)cc1", "values": [{"measurement": "inhibition", "setting": "[1]", "result": 2, "unit": "%"}, {"measurement": "inhibition", "setting": "[2]", "result": 44, "unit": "%"}, {"measurement": "inhibition", "setting": "[3]", "result": 13, "unit": "%"}, {"measurement": "inhibition", "setting": "[4]", "result": 41, "unit": "%"}, {"measurement": "inhibition", "setting": "[6]", "result": 14, "unit": "%"}]}, {"smiles": "O=C(Nc1ccccc1)Nc1cccc(C(F)(F)F)c1", "values": [{"measurement": "inhibition", "setting": "[1]", "result": 0, "unit": "%"}, {"measurement": "inhibition", "setting": "[2]", "result": 0, "unit": "%"}, {"measurement": "inhibition", "setting": "[3]", "result": 19, "unit": "%"}, {"measurement": "inhibition", "setting": "[4]", "result": 0, "unit": "%"}]}, {"smiles": "Nc1n[nH]c2ncccc12", "values": [{"measurement": "inhibition", "setting": "[1]", "result": 52, "unit": "%"}, {"measurement": "inhibition", "setting": "[2]", "result": 13, "unit": "%"}, {"measurement": "inhibition", "setting": "[3]", "result": 59, "unit": "%"}, {"measurement": "inhibition", "setting": "[4]", "result": 39, "unit": "%"}]}, {"smiles": "Nc1ncccc1OCc1ccccc1", "values": [{"measurement": "inhibition", "setting": "[1]", "result": 39, "unit": "%"}, {"measurement": "inhibition", "setting": "[5]", "result": 100, "unit": "%"}, {"measurement": "inhibition", "setting": "[2]", "result": 17, "unit": "%"}, {"measurement": "inhibition", "setting": "[3]", "result": 92, "unit": "%"}, {"measurement": "inhibition", "setting": "[4]", "result": 12, "unit": "%"}]}, {"smiles": "O=C(Nc1ccccc1)Nc1ccccc1", "values": [{"measurement": "inhibition", "setting": "[2]", "result": 0, "unit": "%"}, {"measurement": "inhibition", "setting": "[3]", "result": 11, "unit": "%"}, {"measurement": "inhibition", "setting": "[4]", "result": 0, "unit": "%"}]}, {"smiles": "c1ccc(Nc2ncccn2)cc1", "values": [{"measurement": "inhibition", "setting": "[1]", "result": 10, "unit": "%"}, {"measurement": "inhibition", "setting": "[5]", "result": 10, "unit": "%"}, {"measurement": "inhibition", "setting": "[2]", "result": 15, "unit": "%"}, {"measurement": "inhibition", "setting": "[3]", "result": 55, "unit": "%"}, {"measurement": "inhibition", "setting": "[4]", "result": 69, "unit": "%"}, {"measurement": "inhibition", "setting": "[6]", "result": 19, "unit": "%"}]}, {"smiles": "c1cnc2[nH]ccc2c1", "values": [{"measurement": "inhibition", "setting": "[5]", "result": 19, "unit": "%"}, {"measurement": "inhibition", "setting": "[2]", "result": 5, "unit": "%"}, {"measurement": "inhibition", "setting": "[3]", "result": 21, "unit": "%"}, {"measurement": "inhibition", "setting": "[4]", "result": 44, "unit": "%"}]}, {"smiles": "Cc1ccc(NC(=O)Nc2cccc(C(F)(F)F)c2)cc1", "values": [{"measurement": "inhibition", "setting": "[1]", "result": 9, "unit": "%"}, {"measurement": "inhibition", "setting": "[2]", "result": 0, "unit": "%"}, {"measurement": "inhibition", "setting": "[3]", "result": 22, "unit": "%"}, {"measurement": "inhibition", "setting": "[4]", "result": 0, "unit": "%"}]}, {"smiles": "CC(C)(C)c1cc(NC(=O)Nc2ccccc2)no1", "values": [{"measurement": "inhibition", "setting": "[1]", "result": 3, "unit": "%"}, {"measurement": "inhibition", "setting": "[2]", "result": 0, "unit": "%"}, {"measurement": "inhibition", "setting": "[3]", "result": 19, "unit": "%"}, {"measurement": "inhibition", "setting": "[4]", "result": 0, "unit": "%"}]}]}
